These results are taken from patent publication US9661853B2, “Molecules having pesticidal utility, and intermediates, compositions, and processes, related thereto” (Dow AgroSciences LLC, priority 2015, dated 2017).

The test system of test [1] is Beet Armyworm (Spodoptera exigua, LAPHEG). Description: Bioassay on Beet Armyworm (BAW), 128-well diet tray assay. To be noted: 168 h, 50 μg/cm^2 on artificial diet, second instar larvae, 25° C., five to seven days, average of eight wells, read-out: BAW % Control (or Mortality) rating. It counts as in vivo. How it is done:
(§1) Bioassays on Beet Armyworm (Spodoptera exigua, LAPHEG) (“BAW”) and Cabbage Looper (Trichoplusia ni, TRIPNI) (“CL”)
(§2) Certain molecules disclosed in this document were tested against BAW and CL using procedures described in the following examples. In the reporting of the results, the “BAW & CL Rating Table” was used (See Table Section).
Bioassays on BAW were conducted using a 128-well diet tray assay. One to five second instar BAW larvae were placed in each well (3 mL) of the diet tray that had been previously filled with 1 mL of artificial diet to which 50 μg/cm^2 of the test molecule (dissolved in 50 μL of 90:10 acetone-water mixture) had been applied (to each of eight wells) and then allowed to dry. Trays were covered with a clear self-adhesive cover, vented to allow gas exchange, and held at 25° C., 14:10 light-dark for five to seven days. Percent mortality was recorded for the larvae in each well; activity in the eight wells was then averaged. The results are indicated in the table entitled “Table ABC: Biological Results” (See Table Section).

In test [2] the test system is Cabbage Looper (Trichoplusia ni, TRIPNI). Description: Bioassay on Cabbage Looper (CL), 128-well diet tray assay. The settings on record: 168 h, 50 μg/cm^2 on artificial diet, second instar larvae, 25° C., five to seven days, average of eight wells, read-out: CL % Control (or Mortality) rating. The format is in vivo. As to the method:
as §1, §2
Bioassays on CL were conducted using a 128-well diet tray assay. One to five second instar CL larvae were placed in each well (3 mL) of the diet tray that had been previously filled with 1 mL of artificial diet to which 50 μg/cm^2 of the test molecule (dissolved in 50 μL of 90:10 acetone-water mixture) had been applied (to each of eight wells) and then allowed to dry. Trays were covered with a clear self-adhesive cover, vented to allow gas exchange, and held at 25° C., 14:10 light-dark for five to seven days. Percent mortality was recorded for the larvae in each well; activity in the eight wells was then averaged. The results are indicated in the table entitled “Table ABC: Biological Results” (See Table Section).

Structures are written as SMILES.

As for `COC(C)c1ccc(C)cc1N1C(=O)CS/C1=N\C(=O)Nc1ccc(CNc2ncn(-c3ccc(OC(F)(F)F)cc3)n2)cc1` (centres unmarked) [F1, (Z)-1-(3-(2-(1-Methoxyethyl)-5-methylphenyl)-4-oxothiazolidin-2-ylidene)-3-(4-(((1-(4-(trifluoromethoxy)phenyl)-1H-1,2,4-triazol-3-yl)amino)methyl)phenyl)urea], the mortality at 50 µg/cm2 in test [1] and in test [2] was 50 to 100% throughout.
Regarding `COCc1ccc(C)cc1N1C(=O)CS/C1=N\C(=O)Nc1ccc(CNc2ncn(-c3ccc(OC(F)(F)F)cc3)n2)cc1` [F4, (Z)-1-(3-(2-(Methoxymethyl)-5-methylphenyl)-4-oxothiazolidin-2-ylidene)-3-(4-(((1-(4-(trifluoromethoxy)phenyl)-1H-1,2,4-triazol-3-yl)amino)methyl)phenyl)urea], the mortality at 50 µg/cm2 in test [1] and in test [2] was 50 to 100% throughout.
Take `Cc1ccc(C(C)C)c(N2C(=O)CS/C2=N\C(=O)Nc2ccc(CNc3ncn(-c4ccc(OC(F)(F)F)cc4)n3)c(Cl)c2)c1` [F7, (Z)-1-(3-Chloro-4-(((1-(4-(trifluoromethoxy)phenyl)-1H-1,2,4-triazol-3-yl)amino)methyl)phenyl)-3-(3-(2-isopropyl-5-methylphenyl)-4-oxothiazolidin-2-ylidene)urea]: the mortality at 50 µg/cm2 in test [1] and in test [2] was 50 to 100% throughout.
As to `CCCc1ccc(C)cc1N1C(=O)CS/C1=N\C(=O)Nc1ccc(CNc2ncn(-c3ccc(OC(F)(F)F)cc3)n2)c(Cl)c1` [F8, (Z)-1-(3-Chloro-4-(((1-(4-(trifluoromethoxy)phenyl)-1H-1,2,4-triazol-3-yl)amino)methyl)phenyl)-3-(3-(5-methyl-2-propylphenyl)-4-oxothiazolidin-2-ylidene)urea], the mortality at 50 µg/cm2 in test [1] and in test [2] was 50 to 100% throughout.
`COCc1ccc(C)cc1N1C(=O)CS/C1=N\C(=O)Nc1ccc(CNc2ncn(-c3ccc(OC(F)(F)F)cc3)n2)c(Cl)c1` [F9, (Z)-1-(3-Chloro-4-(((1-(4-(trifluoromethoxy)phenyl)-1H-1,2,4-triazol-3-yl)amino)methyl)phenyl)-3-(3-(2-(methoxymethyl)-5-methylphenyl)-4-oxothiazolidin-2-ylidene)urea]: the mortality at 50 µg/cm2 in test [1] and in test [2] was 50 to 100% throughout.
With `Cc1ccc(C(C)C)c(N2C(=O)CS/C2=N\C(=O)Nc2ccc(CNc3ncn(-c4ccc(OC(F)(F)F)cc4)n3)cn2)c1` [F11, (Z)-1-(3-(2-Isopropyl-5-methylphenyl)-4-oxothiazolidin-2-ylidene)-3-(5-(((1-(4-(trifluoromethoxy)phenyl)-1H-1,2,4-triazol-3-yl)amino)methyl)pyridin-2-yl)urea], the mortality at 50 µg/cm2 in test [1] and in test [2] was 50 to 100% throughout.
`CCCc1ccc(C)cc1N1C(=O)CS/C1=N\C(=O)Nc1ccc(CNc2ncn(-c3ccc(OC(F)(F)F)cc3)n2)cn1` [F12, (Z)-1-(3-(5-Methyl-2-propylphenyl)-4-oxothiazolidin-2-ylidene)-3-(5-(((1-(4-(trifluoromethoxy)phenyl)-1H-1,2,4-triazol-3-yl)amino)methyl)pyridin-2-yl)urea]: the mortality at 50 µg/cm2 in test [1] and in test [2] was 50 to 100% in each case.
Regarding `COCc1ccc(C)cc1N1C(=O)CS/C1=N\C(=O)Nc1ccc(CNc2ncn(-c3ccc(OC(F)(F)F)cc3)n2)cn1` [F13, (Z)-1-(3-(2-(Methoxymethyl)-5-methylphenyl)-4-oxothiazolidin-2-ylidene)-3-(5-(((1-(4-(trifluoromethoxy)phenyl)-1H-1,2,4-triazol-3-yl)amino)methyl)pyridin-2-yl)urea], the mortality at 50 µg/cm2 in test [1] and in test [2] was 50 to 100% throughout.
For `COCc1ccc(C)cc1N1C(=O)CS/C1=N\C(=O)Nc1ccc(CN(C)c2ncn(-c3ccc(OC(F)(F)F)cc3)n2)cn1` [F14, (Z)-1-(3-(2-(Methoxymethyl)-5-methylphenyl)-4-oxothiazolidin-2-ylidene)-3-(5-((methyl(1-(4-(trifluoromethoxy)phenyl)-1H-1,2,4-triazol-3-yl)amino)methyl)pyridin-2-yl)urea], the mortality at 50 µg/cm2 in test [1] and in test [2] was 50 to 100% in each case.
Turning to `Cc1ccc(C(C)C)c(N2C(=O)CS/C2=N\C(=O)Nc2ccc(CN(C)c3ncn(-c4ccc(OC(F)(F)F)cc4)n3)cn2)c1` [F16, (Z)-1-(3-(2-Isopropyl-5-methylphenyl)-4-oxothiazolidin-2-ylidene)-3-(5-((methyl(1-(4-(trifluoromethoxy)phenyl)-1H-1,2,4-triazol-3-yl)amino)methyl)pyridin-2-yl)urea], the mortality at 50 µg/cm2 in test [1] and in test [2] was 50 to 100% throughout.
In the case of `COCc1ccc(C)cc1N1C(=O)CS/C1=N\C(=O)Nc1ccc(CN(C)c2ncn(-c3ccc(OC(F)(F)F)cc3)n2)cc1F` [F17, (Z)-1-(2-Fluoro-4-((methyl(1-(4-(trifluoromethoxy)phenyl)-1H-1,2,4-triazol-3-yl)amino)methyl)phenyl)-3-(3-(2-(methoxymethyl)-5-methylphenyl)-4-oxothiazolidin-2-ylidene)urea], the mortality at 50 µg/cm2 in test [1] and in test [2] was 50 to 100% each time.
On to `COCc1ccc(C)cc1N1C(=O)CS/C1=N\C(=O)Nc1ccc(CN(C)c2ncn(-c3ccc(OC(F)(F)F)cc3)n2)c(Cl)c1` [F18, (Z)-1-(3-Chloro-4-((methyl(1-(4-(trifluoromethoxy)phenyl)-1H-1,2,4-triazol-3-yl)amino)methyl)phenyl)-3-(3-(2-(methoxymethyl)-5-methylphenyl)-4-oxothiazolidin-2-ylidene)urea], for which the mortality at 50 µg/cm2 in test [1] and in test [2] was 0 to 50% each time.
For `CCCc1ccc(C)cc1N1C(=O)CS/C1=N\C(=O)Nc1ccc(CN(C)c2ncn(-c3ccc(OC(F)(F)F)cc3)n2)c(Cl)c1` [F19, (Z)-1-(3-Chloro-4-((methyl(1-(4-(trifluoromethoxy)phenyl)-1H-1,2,4-triazol-3-yl)amino)methyl)phenyl)-3-(3-(5-methyl-2-propylphenyl)-4-oxothiazolidin-2-ylidene)urea], the mortality at 50 µg/cm2 in test [1] and in test [2] was 0% throughout.
With `Cc1ccc(C(C)C)c(N2C(=O)CS/C2=N\C(=O)Nc2ccc(CN(C)c3ncn(-c4ccc(OC(F)(F)F)cc4)n3)c(Cl)c2)c1` [F20, (Z)-1-(3-Chloro-4-((methyl(1-(4-(trifluoromethoxy)phenyl)-1H-1,2,4-triazol-3-yl)amino)methyl)phenyl)-3-(3-(2-isopropyl-5-methylphenyl)-4-oxothiazolidin-2-ylidene)urea], the mortality at 50 µg/cm2 in test [1] lay within 0 to 50%; in test [2], 50 to 100%.
Regarding `Cc1ccc(C(C)C)c(N2C(=O)CS/C2=N\C(=O)Nc2ccc(CN(C)c3ncn(-c4ccc(OC(F)(F)F)cc4)n3)cc2F)c1` [F22, (Z)-1-(2-Fluoro-4-((methyl(1-(4-(trifluoromethoxy)phenyl)-1H-1,2,4-triazol-3-yl)amino)methyl)phenyl)-3-(3-(2-isopropyl-5-methylphenyl)-4-oxothiazolidin-2-ylidene)urea], the mortality at 50 µg/cm2 in test [1] and in test [2] was 50 to 100% each time.
For the molecule `CCCc1ccc(C)cc1N1C(=O)CS/C1=N\C(=O)Nc1ccc(CN(C)c2ncn(-c3ccc(OC(F)(F)F)cc3)n2)cc1` [F23, (Z)-1-(4-((Methyl(1-(4-(trifluoromethoxy)phenyl)-1H-1,2,4-triazol-3-yl)amino)methyl)phenyl)-3-(3-(5-methyl-2-propylphenyl)-4-oxothiazolidin-2-ylidene)urea], the mortality at 50 µg/cm2 in test [1] and in test [2] was 50 to 100% throughout.
`Cc1ccc(C(C)C)c(N2C(=O)CS/C2=N\C(=O)Nc2ccc(CN(C)c3ncn(-c4ccc(OC(F)(F)F)cc4)n3)cc2)c1` [F24, (Z)-1-(3-(2-Isopropyl-5-methylphenyl)-4-oxothiazolidin-2-ylidene)-3-(4-((methyl(1-(4-(trifluoromethoxy)phenyl)-1H-1,2,4-triazol-3-yl)amino)methyl)phenyl)urea]: the mortality at 50 µg/cm2 in test [1] and in test [2] was 50 to 100% in each case.
On to `Cc1ccc(C(C)C)c(N2C(=O)CS/C2=N\C(=O)Nc2ccc(C(=O)N(C)c3ncn(-c4ccc(OC(F)(F)F)cc4)n3)cc2)c1` [F25, (Z)-4-(3-(3-(2-isopropyl-5-methylphenyl)-4-oxothiazolidin-2-ylidene)ureido)-N-methyl-N-(1-(4-(trifluoromethoxy)phenyl)-1H-1,2,4-triazol-3-yl)benzamide], for which the mortality at 50 µg/cm2 in test [1] and in test [2] was 50 to 100% each time.
Consider `Cc1ccc(C(C)C)c(N2C(=O)CS/C2=N\C(=O)Nc2ccc(NC(=O)c3ncn(-c4ccc(OC(F)(F)F)cc4)n3)cc2)c1` [F26, (Z)—N-(4-(3-(3-(2-Isopropyl-5-methylphenyl)-4-oxothiazolidin-2-ylidene)ureido)phenyl)-1-(4-(trifluoromethoxy)phenyl)-1H-1,2,4-triazole-3-carboxamide], for which the mortality at 50 µg/cm2 in test [1] and in test [2] was 50 to 100% throughout.
